# Results: paper PMC12217463, “Functional and structural analyses of amino acid sequence variation in PDC β-lactamase reveal different mechanistic pathways toward cefiderocol resistance in Pseudomonas aeruginosa” (Antimicrobial Agents and Chemotherapy, 2025)
# What was measured:
# Assay in all cases: MIC, broth microdilution
# Type in all cases: cell-based
# PAO1 + blaPDC G202S = conditions: Pseudomonas aeruginosa
# Text: (§1) We took advantage of a previously constructed and characterized laboratory collection of recombinant P. aeruginosa PAO1 isolates expressing different blaPDC variants, but specifically enriched for this work with additional variants, following the previously described methodology ([17]). […] The final collection comprised 40 recombinant isolates (20 in PAO1 and 20 in PAO ΔpiuC) producing the wild-type PDC-1 variant from PAO1 and 19 derivatives carrying specific amino acid substitutions previously associated with the development of resistance to ceftazidime/avibactam, ceftolozane/tazobactam, or cefiderocol: T70I, F121L, P153L, G156D, A200T, G202S, ΔG202-E219, G214R, P215L, P215S, ΔP215-G222, D217N, E219K, E219G, E219D, S226ins, L293P, F121L + E219K, and F121L + G222S.
# (§2) The MICs of ceftazidime, ceftazidime/avibactam, ceftolozane/tazobactam, cefepime, and cefiderocol were determined in triplicate, for all isolates, by reference broth microdilution assays. Avibactam and tazobactam were fixed at 4 mg/L. All assays were performed using cation-adjusted Mueller-Hinton broth (CAMHB), except for cefiderocol, which was determined in all cases using iron-depleted CAMHB, prepared according to CLSI M100 guidelines ([40]). EUCAST v.15.0 clinical breakpoints and guidelines (http://www.eucast.org/clinical_breakpoints/) were used for reference purposes. Reference strains Escherichia coli ATCC 25922, Klebsiella pneumoniae ATCC 700603, and P. aeruginosa ATCC 27853 were used as controls.
# PAO1 + blaPDC ∆P215-G222 = conditions: Pseudomonas aeruginosa, avibactam and tazobactam fixed at 4 mg/L, FDC in iron-depleted CAMHB
# Text: as §1, §2
# PAO1 + blaPDC D217N = conditions: Pseudomonas aeruginosa
# Text: as §1, §2
# PAO1 + blaPDC E219D = conditions: Pseudomonas aeruginosa
# Text: as §1, §2
# PAO1 + blaPDC P215S = conditions: Pseudomonas aeruginosa
# Text: as §1, §2
# PAO1 + blaPDC-1 (WT) = conditions: Pseudomonas aeruginosa, avibactam and tazobactam fixed at 4 mg/L, FDC in iron-depleted CAMHB
# Text: as §1, §2
# PAO1 + blaPDC G156D = conditions: Pseudomonas aeruginosa
# Text: as §1, §2
# PAO1 + blaPDC S226ins = conditions: Pseudomonas aeruginosa, avibactam and tazobactam fixed at 4 mg/L, FDC in iron-depleted CAMHB
# Text: as §1, §2
# PAO1 + blaPDC P215L = conditions: Pseudomonas aeruginosa
# Text: as §1, §2
# PAO1 + blaPDC T70I = conditions: Pseudomonas aeruginosa
# Text: as §1, §2
# PAO1 + blaPDC L293P = conditions: Pseudomonas aeruginosa
# Text: as §1, §2
# PAO1 = conditions: Pseudomonas aeruginosa; PAO1 wild type, no plasmid-borne PDC; avibactam and tazobactam fixed at 4 mg/L; FDC in iron-depleted CAMHB
# Text: as §1, §2
# PAO1 + blaPDC E219K = conditions: Pseudomonas aeruginosa
# Text: as §1, §2
# PAO1 + blaPDC F121L = conditions: Pseudomonas aeruginosa
# Text: as §1, §2
# PAO1 + blaPDC G214R = conditions: Pseudomonas aeruginosa
# Text: as §1, §2
# PAO1 + blaPDC A200T = conditions: Pseudomonas aeruginosa
# Text: as §1, §2
# PAO1 + blaPDC P153L = conditions: Pseudomonas aeruginosa
# Text: as §1, §2
# [1] = tested on: PAO1 + blaPDC F121L + E219K; conditions: Pseudomonas aeruginosa
# Text: as §1, §2
smiles,measurement,setting,value
"CC(C)(O/N=C(\C(=O)N[C@@H]1C(=O)N2C(C(=O)[O-])=C(C[N+]3(CCNC(=O)c4ccc(O)c(O)c4Cl)CCCC3)CS[C@H]12)c1csc(N)n1)C(=O)O [FDC, cefiderocol]",MIC,PAO1 + blaPDC G202S,0.5 µg/mL
same,MIC,PAO1 + blaPDC ∆P215-G222,2 µg/mL
same,MIC,PAO1 + blaPDC D217N,0.5 µg/mL
same,MIC,PAO1 + blaPDC E219D,0.5 µg/mL
same,MIC,PAO1 + blaPDC P215S,0.5 µg/mL
same,MIC,PAO1 + blaPDC-1 (WT),0.25 µg/mL
same,MIC,PAO1 + blaPDC G156D,0.5 µg/mL
same,MIC,PAO1 + blaPDC S226ins,0.5 µg/mL
same,MIC,PAO1 + blaPDC P215L,0.5 µg/mL
same,MIC,PAO1 + blaPDC T70I,0.5 µg/mL
same,MIC,PAO1 + blaPDC L293P,4 µg/mL
same,MIC,PAO1,0.125 µg/mL
same,MIC,PAO1 + blaPDC E219K,4 µg/mL
same,MIC,PAO1 + blaPDC F121L,0.5 µg/mL
same,MIC,PAO1 + blaPDC G214R,1 µg/mL
same,MIC,PAO1 + blaPDC A200T,0.5 µg/mL
same,MIC,PAO1 + blaPDC P153L,0.5 µg/mL
same,MIC,[1],4 µg/mL
